Patent US7258999B2, “PTH responsive gene” (Wyeth, priority 2002, dated 2007)

Test system: Ovariectomized Rats with Established Osteopenia
Assay: pQCT total and trabecular density (BMD) of proximal tibia in OVX rats
Type: in vivo, rat
Settings: for ΔTotal Density / ΔTrabecular Density: 40 μg/kg sc, mean ± SEM
Method: The total density of the proximal tibia was evaluated in anesthetized rats using peripheral quantitative computed tomography (pQCT) with XCT-960M (Stratec Medizintechnik, Pforzheim, Germany). The baseline and post-treatment measurements were performed in anesthetized rats as follows: The right hind limb was passed through a polycarbonate tube with a diameter of 25 mm and taped to an acrylic frame with the ankle joint at a 90° angle and the knee joint at 180°. The polycarbonate tube was affixed to a sliding platform that maintained it perpendicular to the aperture of the pQCT. The platform was adjusted so that the distal end of the femur and the proximal end of the tibia would be in the scanning field. A two dimensional scout view was run for a length of 10 mm and a line resolution of 0.2 mm. […] The pQCT scan was initiated 3.4 mm distal from this point. […] A region of interest including the tibia but excluding the fibula was outlined. The soft tissue was automatically removed using an iterative algorithm. The density of the remaining bone (Total density) was reported in mg/cm^3. The change in total density was calculated for each animal by subtracting post-treatment and baseline total density values.
Female Wister rats 4 weeks of age were treated with vehicle (saline) and human PTH (1-34) at a dose of 40 μg/kg of body weight for eight days. Prior to PTH administration animals were ovariectomized (OVX). Three weeks post OVX total BMD was measured to determine if osteopenia was established. Subcutaneous injection of PTH once a day represented intermittent administration of PTH, while osmotic pump with release rate of 40 μg/kg/day implanted under the skin represented continuous way of PTH administration. On the eight day of treatment, 6 hours post treatment animals were scarified and samples were collected for further analysis. Each treatment group contained 8 animals.
PTH (1-34) in a dose of 40 μg/kg was administered for eight days to the 3 weeks OVX rats in intermitted and continuous manner to induce anabolic and catabolic PTH effects respectively. As described in General Method section, intermittent administration of PTH was presented by once a day subcutaneous injection of PTH while continues administration was presented with osmotic pumps implanted under the skin with release rate of 40 μg/kg a day. Total bone mineral density was measured using pQCT. Intermittent PTH injection induced significant increases in total BMD, with Δ BMD of […] (FIG. 1). […] Thus, PTH exerts its effect on bone anabolic and catabolic (i.e., causing a decrease in BMD) depending of the way of its administration.
In order to examine whether changes in PAIGB expression with intermittent PTH treatment correlates with effects of PTH on bone, samples from rats treated with PTH for 2, 4 and 8 days were subjected to BMD measurements for both total and trabecular bone (trabecular density of proximal tibia was measured). Two days PTH treatment increases expression of PAIGB. At the same time point significant increase in trabecular BMD (Δ trabecular density: 6.98+/−17.90 with PTH treatment vs −27.1+/−9.27 with vehicle treatment) was detected without any significant changes in total BMD (Δ total density: −9.15+/−2.94 PTH vs 0.69+/−4.10 vehicle) (Table 1).

[1] = four days treatment, listed as HPTH (1–34)
[2] = four days treatment, listed as PTH
[3] = two days treatment, listed as HPTH (1–34)
[4] = two days treatment, listed as PTH

human PTH (1-34)
change in total BMD (continuous: osmotic pump 40 μg/kg a day, eight days, 3 weeks OVX rats): did not induce any changes
ΔTotal Density [1]: -10.56 ± 3.11 mg/mL
ΔTrabecular Density [1]: 8.70 ± 9.98 mg/mL
ΔTotal Density [2]: 10.56 ± 3.11 mg/mL
ΔTrabecular Density [2]: 8.70 ± 9.98 mg/mL
Δ BMD (total BMD) (intermittent: 40 μg/kg once a day sc, eight days, 3 weeks OVX rats): 80 mg/cm³
ΔTotal Density [3]: -9.15 ± 2.94 mg/mL
ΔTrabecular Density [3]: 6.98 ± 17.90 mg/mL
ΔTotal Density [4]: -9.15 ± 2.94 mg/mL
ΔTrabecular Density [4]: 6.98 ± 17.90 mg/mL
